{"source": "patent US5858684A", "about": "“Method of screening calcium receptor-active molecules” (priority 1995, dated 1999)", "key": {"[1]": {"assay": "hypocalcemic response in nephrectomized rats", "format": "in vivo, rat", "conditions": "oral", "description": "The decreases in serum levels of PTH together with. the resulting hypocalcemia are desirable therapeutic effects in cases of hyperparathyroidism."}, "[2]": {"assay": "circulating PTH in rats", "format": "in vivo, rat"}, "[3]": {"assay": "serum parathyroid hormone in a human", "format": "in vivo", "conditions": "single oral doses 20-400 mg", "description": "A range of single oral doses was used to assess safety, tolerance, and changes in primary hyperparathyroidism markers (e.g., plasma concentrations of parathyroid hormone and ionized serum calcium) and of serum calcitonin."}, "[4]": {"biological_target": "T1, calcium receptor expressed from human parathyroid cell mRNA in Xenopus oocytes (Homo sapiens, UniProt P41180)", "T1 sequence (P41180 20-1078)": "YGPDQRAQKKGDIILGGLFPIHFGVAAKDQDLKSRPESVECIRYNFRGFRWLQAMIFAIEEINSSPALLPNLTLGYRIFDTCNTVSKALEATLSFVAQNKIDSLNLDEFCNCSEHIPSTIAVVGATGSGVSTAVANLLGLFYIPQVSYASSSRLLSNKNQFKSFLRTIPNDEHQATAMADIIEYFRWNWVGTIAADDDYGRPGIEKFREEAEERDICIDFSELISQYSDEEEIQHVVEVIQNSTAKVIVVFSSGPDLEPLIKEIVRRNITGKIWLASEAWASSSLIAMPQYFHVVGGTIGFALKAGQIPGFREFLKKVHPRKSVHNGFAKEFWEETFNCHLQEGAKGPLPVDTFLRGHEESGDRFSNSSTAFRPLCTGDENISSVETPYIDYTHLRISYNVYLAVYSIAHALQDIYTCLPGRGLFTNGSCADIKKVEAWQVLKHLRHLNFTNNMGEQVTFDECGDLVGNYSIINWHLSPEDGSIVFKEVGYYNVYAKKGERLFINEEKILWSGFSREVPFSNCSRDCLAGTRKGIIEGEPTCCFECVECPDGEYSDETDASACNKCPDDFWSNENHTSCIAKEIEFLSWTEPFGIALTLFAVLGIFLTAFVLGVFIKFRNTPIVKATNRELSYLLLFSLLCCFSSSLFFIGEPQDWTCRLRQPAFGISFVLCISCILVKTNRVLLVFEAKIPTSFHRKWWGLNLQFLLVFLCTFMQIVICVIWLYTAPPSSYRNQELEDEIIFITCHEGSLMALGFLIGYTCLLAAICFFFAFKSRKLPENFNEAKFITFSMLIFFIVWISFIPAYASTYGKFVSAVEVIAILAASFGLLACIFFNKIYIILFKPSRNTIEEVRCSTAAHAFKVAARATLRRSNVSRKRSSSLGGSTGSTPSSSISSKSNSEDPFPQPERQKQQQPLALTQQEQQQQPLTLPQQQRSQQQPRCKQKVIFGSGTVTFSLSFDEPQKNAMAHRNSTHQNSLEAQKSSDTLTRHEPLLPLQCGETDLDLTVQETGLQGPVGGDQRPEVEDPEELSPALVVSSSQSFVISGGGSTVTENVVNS", "assay": "response of Xenopus oocytes injected with human parathyroid mRNA", "format": "cell-based", "description": "Oocytes were injected with poly(A)^+ -enriched mRNA from human parathyroid tissue (hyperplastic glands from a case of secondary HPT).\nGlass capillary tubes (1 mm diameter) were pulled to a fine tip and manually broken to achieve a tip diameter of about 15 μmeters. A droplet of mRNA (1 ng/nl in diethylpyrocarbonate (DEPC)-treated water) was placed onto […]® and drawn into the capillary tube by suction. The capillary tube was then connected to a picospritzer (WPI Instruments) and the volume of the air-pulsed droplets adjusted to deliver 50 ng of mRNA (typically 50 nl). A 35-mm culture dish with a patch of nylon stocking fixed to the bottom was used to secure the oocytes during injection of mRNA into the vegetal pole. The injected oocytes were placed into a 35-mm culture dish containing MBS, 100 μg/ml penicillin and 100 μg/ml streptomycin and incubated at 18° C. for 3 days.\nFollowing incubation, an oocyte was placed into a 100-μl plastic chamber and superfused with MBS at a flow rate of 0.5 ml/min using a peristaltic pump. Test molecules or inorganic polycations were added by rapidly moving the tubing into different buffers. Recording and current-passing electrodes were constructed from thin-wall capillary tubing pulled to a resistance of 1-3 Mohms and filled with 3M KCl. […] Currents were recorded directly onto a strip chart recorder.\nUsing this screen allows one to test for an action directly on the calcium receptor. Oocytes expressing the calcium receptor also responded to several molecules active on intact parathyroid cells when screened as follows. […] This offers rather compelling evidence showing that these molecules act on the calcium receptor or on some other protein intimately associated with its function."}, "[5]": {"tested_on": "cyclic AMP formation in bovine parathyroid cells", "format": "cell-based", "procedure": "Cells were incubated as above for PTH secretion studies and at the end of the incubation, a 0.15-ml sample was taken and transferred to 0.85 ml of hot (70° C.) water and heated at this temperature for 5-10 minutes. The tubes were subsequently frozen and thawed several times and the cellular debris sedimented by centrifugation. Portions of the supernatant were acetylated and cyclic AMP concentrations determined by radioimmunoassay.\nEach value is the mean±SEM of three experiments."}, "[6]": {"biological_target": "T2, human parathyroid cells (calcium receptor) (Homo sapiens, UniProt P41180)", "T2 sequence (P41180 20-1078)": "T1 sequence (P41180 20-1078)", "format": "cell-based", "procedure": "Human parathyroid glands, were obtained from patients undergoing surgical removal of parathyroid tissue for primary or uremic hyperparathyroidism (uremic HPT), and were treated similarly to bovine tissue.\nThe cells were then pelleted, resuspended in the same buffer, but lacking the ester, and incubated a further 15 minutes at 37° C. The cells were subsequently washed twice with PCB containing 0.5 mM CaCl2 and 0.5% BSA and maintained at room temperature (about 20° C.). Immediately before use, the cells were diluted five-fold with prewarmed 0.5 mM CaCl2 -PCB to obtain a final BSA concentration of 0.1%. The concentration of cells in the cuvette used for fluorescence recording was 1-2×10^6 /ml.\nThe fluorescence of indicator-loaded cells was measured at 37° C. in a spectrofluorimeter (Biomedical Instrumentation Group, University of Pennsylvania, Philadelphia, Pa.) equipped with a thermostated cuvette holder and magnetic stirrer using excitation and emission wavelengths of 340 and 510 nm, respectively. […] Leakage of dye is dependent on temperature and most occurs within the first 2 minutes after warming the cells in the cuvette. Dye leakage increases only very slowly thereafter. To correct the calibration for dye leakage, cells were placed in the cuvette and stirred at 37° C. for 2-3 minutes. The cell suspension was then removed, the cells pelleted, and the supernatant returned to a clean cuvette. […] This estimate was subtracted from the apparent Fmin."}, "[7]": {"assay": "net positive charge", "format": "physicochemical"}, "[8]": {"tested_on": "PTH secretion from human parathyroid cells", "assay": "PTH secretion from human parathyroid cells", "format": "cell-based", "conditions": "human (adenoma) parathyroid cells", "description": "PTH secretion was measured by first suspending cells in PCB containing 0.5 mM CaCl2 and 0.1% BSA.\nFor human cells, a commercially available radioimmunoassay kit (INS-PTH; Nichols Institute, Los Angeles, Calif.) which recognizes intact and N-terminal human PTH was used because GW-1 antibody recognizes human PTH poorly."}, "[9]": {"tested_on": "osteoclast calcium receptor", "assay": "increase in [Ca2+]i in indo-1-loaded rat osteoclasts", "format": "cell-based"}}, "note": "Entries after “also recorded” stand apart in the source; their conditions may differ. Like-named read-outs stand apart in the source and are kept apart here."}
{"smiles": "COc1cccc([C@@H](C)NCCCc2ccccc2Cl)c1", "note": "[NPS R-568, (R)-(+)-N-[3-(2-chlorophenyl)propyl]-amethyl-α-3-methoxybenzylamine]", "values": [{"measurement": "hypocalcemic response after complete nephrectomy", "setting": "[1]", "value": "only marginally affected"}, {"measurement": "circulating levels of PTH", "setting": "[2]", "value": "decreases in the levels of serum PTH; also recorded: rapid, dose-dependent decrease"}, {"measurement": "plasma PTH in human", "setting": "[3]", "value": "transient dose-dependent decrease in plasma PTH concentration"}]}
{"smiles": "NC[C@@H]1O[C@H](O[C@H]2[C@@H](O)[C@H](O[C@@H]3[C@@H](O)[C@H](N)C[C@H](N)[C@H]3O[C@H]3O[C@H](CN)[C@@H](O)[C@H](O)[C@H]3N)O[C@@H]2CO)[C@H](N)[C@@H](O)[C@@H]1O", "note": "[Neomycin]", "values": [{"measurement": "response of water-injected oocytes", "setting": "[4]; 10 mM, water-injected control oocytes", "value": "failed to cause any change in the current"}, {"measurement": "concentration effective in oocytes", "setting": "[4]; human parathyroid mRNA", "value": 100, "unit": "µM"}, {"measurement": "response of oocytes expressing calcium receptor", "setting": "[4]; human parathyroid mRNA, listed as Neomycin B", "value": "evoked oscillatory increases"}, {"measurement": "response of oocytes expressing calcium receptor", "setting": "[4]; human parathyroid mRNA, listed as neomycin B", "value": "evokes oscillating increases"}, {"measurement": "isoproterenol-induced cyclic AMP", "setting": "[5]", "value": "depressed isoproterenol-induced increases"}, {"measurement": "increase in [Ca2+]i (words)", "setting": "[6]; 20 μM", "value": "evoked a large increase"}, {"measurement": "increase in [Ca2+]i (words)", "setting": "[6]; human adenomatous tissue, 0.5 mM extracellular Ca2+, neomycin B 10 μM in FIG. 19, listed as Neomycin B", "value": "not only a transient, but additionally a steady-state increase"}, {"measurement": "increase in [Ca2+]i (words)", "setting": "[6]; human adenomatous tissue, 0.5 mM extracellular Ca2+, neomycin B 10 μM in FIG. 19, listed as neomycin B", "value": "transient and sustained increases"}, {"measurement": "Net (+) Charge (Table 1)", "setting": "[7]", "value": "+6"}, {"measurement": "net positive charge", "setting": "[7]", "value": "+6"}, {"measurement": "net positive charge", "setting": "[7]; pH 7.3", "value": "+6"}, {"measurement": "inhibition of PTH secretion", "setting": "[8]; listed as Neomycin B", "value": "inhibited PTH secretion"}, {"measurement": "inhibition of PTH secretion", "setting": "[8]; listed as neomycin B", "value": "inhibit PTH secretion"}, {"measurement": "block of [Ca2+]i response to 25 mM extracellular Ca2+", "setting": "[9]", "value": "did not block the increase"}, {"measurement": "increase in [Ca2+]i in osteoclasts", "setting": "[9]", "value": "failed to evoke any increase"}, {"measurement": "increase in [Ca2+]i in osteoclasts, overall", "setting": "[9]", "value": "none of these caused any large increase"}, {"measurement": "increase in [Ca2+]i in rat osteoclasts", "setting": "[9]", "value": "Neither"}, {"measurement": "effect on basal [Ca2+]i and on extracellular Ca2+-elicited increase", "setting": "[9]; 5 mM", "value": "without effect on basal"}, {"measurement": "increase in [Ca2+]i in osteoclasts, overall", "setting": "[9]; listed as neomycin B", "value": "fail to evoke increases"}]}
